Values quoted from earlier work in patent publication US20050240051A1, “Dispersing agent or solubilizing agent containing calixarene compound” (Ajinomoto Co., Inc., priority 2002, published 2005).

For `c12c3c4c5c1c1c6c7c2c2c8c3c3c9c4c4c%10c5c5c1c1c6c6c%11c7c2c2c7c8c3c3c8c9c4c4c9c%10c5c5c1c1c6c6c%11c2c2c7c3c3c8c4c4c9c5c1c1c6c2c3c41` [fullerene], the “solubility in hydrocarbon solvents and alcohol solvents” value is listed as “not more than 0.1 mg/ml”, the solubility in toluene is listed as “about 3 mg/ml” and the “solubility in 1-methylnaphthalene” value (at around normal temperature) is listed as “about 33 mg/ml”.
